Reference: patent US4596710A, “Gallium chloride as a new anti-cancerous drug” (priority 1981, dated 1986)

How the values were obtained:
[1] = test system: mammary cancer (tubulo-pillaryadenocarcinoma or mixed-type tumour); assay: Gallium chloride therapy in bitches with mammary cancer (primary tumour or recurrence); format: in vivo, female dogs
Procedure: The anti-tumoral effect of gallium chloride was firstly studied in female dogs having spontaneous malignant tumours of the breast. Gallium chloride therapy was carried out in bitches having a mammary cancer (tubulo-pillaryadenocarcinoma or mixed-type tumour); treatment started either at the stage of the primary tumour (4 bitches) or upon a recurrence after a surgical excision (10 bitches).
(1) In the 4 bitches treated at the primary tumour stage, the following was observed:
In two cases, the treatment was continued for two months, the tumour reducing from 10×7 cm to 8.5×7 cm in one case and from 1.5×1.3 to 1.5×1.0 cm in the other case.
In the third case, the treatment could be continued for more than six months in a very old bitch of 14 years.
(2) In the 10 bitches treated at the recurrence stage, the following was observed: […]

adenocarcinoma = assay: Long-term treatment of two bitches with evolutive third recurrence of mammary tumour; format: in vivo, female dogs
[2] = test system: bilateral cystadenocarcinoma of the ovary; assay: 1st patient: gallium chloride treatment, tumour response; format: in vivo, human
Procedure: Mrs. […] An epiploic and ganglionary invasion was discovered. Cobalt therapy was then carried out from Nov. 5th, 1979 to Feb. […] Treatment by gallium chloride started on Nov. […] An echotomograph on Dec. […] A third echotomograph was made on Jan. […] However, this was refused by the patient. On Mar.

With `[Cl][Ga]([Cl])[Cl]` [gallium chloride] the “results in mammary tumours in the bitch” value ([1]; 5 mg/kg, if duration of treatment extended) was “good results”, the “regression of the tumour, overall” value ([1]; 5 mg/kg, tumour becomes very hard) was “Regression of the tumour remains weak” and the “regression of the tumour (primary tumour stage)” value ([1]; 4 bitches treated at primary tumour stage) was “a regression of the tumour in the other three cases”. The “death (primary tumour stage)” value ([1]; 4 bitches treated at primary tumour stage, 1 to 5 mg/kg oral) was “one death on the 7th day”, the complete remission ([1]; 10 bitches at recurrence stage, recurrent tumour smaller than 0.6 cm at beginning, two months of treatment) was “three complete remissions after two months of treatment” and the “partial regression of the tumour” value ([1]; 10 bitches at recurrence stage, three months of treatment) was “in 5 bitches, a partial regression of the tumour with hardening thereof”. For the same compound, the “death (recurrence stage)” value ([1]; 10 bitches treated at recurrence stage) was “one death in the third week of treatment, due to a pulmonary metastasis”, the “biopsies / histology at the end of the treatment” value ([1]; recurrence stage) was “tumoral cells persisted, but a histological study suggested an increase in the amorphous ground substance with a cellular rarefaction” and the “tumour growth in one bitch” value ([1]; recurrence stage, 1 mg/kg one month, 2.5 mg/kg fifteen days, 5 mg/kg last fifteen days) was “persistent growth of the tumour in one bitch”. For the same compound, the survival ([1]; therapeutic strategy with surgical treatment after gallium chloride) was “seven out of eight bitches are alive”, the “tumour response after resumption of the treatment” value ([1]; third case, bitch of 14 years, 2.5 mg/kg, then 1 mg/kg) was “regressed after resumption of the treatment” and the “tumour development during first two months of treatment” value ([1]; third case, bitch of 14 years, 5 mg/kg, tumour 3.6×2 cm, doubled in four months preceding treatment) was “did not develop”. For the same compound, the “size of the tumour, second bitch (BEL), 4.1.1981” value (adenocarcinoma; 2.5 mg/kg per os from 27.2.1981, 1.2 cm on 2.27.1981) was 1.8 cm in diameter, the “size of the tumour, second bitch (BEL), 4.30.1981” value (adenocarcinoma; 2.5 mg/kg per os to 30.4.1981) was 2.3 cm in diameter and the “tumour evolution after 10.14.1981, first bitch (OUD)” value (adenocarcinoma; 10 mg/kg per os, up to Dec. 28th, 1981) was “tumoral stabilisation”. For the same compound, the “pulmonary radiograph, second bitch (BEL)” value (adenocarcinoma; 5.1.1982) was “normal”, the “death, first bitch (OUD)” value (adenocarcinoma; Dec. 28th, 1981, good general state during preceding days) was “suddenly died (good general state during the preceding days) of a myocardial infarction with acute oedema of the lung and overall heart failure” and the “autopsy, first bitch (OUD)” value (adenocarcinoma; after death Dec. 28th, 1981) was “no hepatic nor pulmonary metastases a small nodule of 1 cm in the spleen”. The “tumour growth after 9.1.1981, second bitch (BEL)” value (adenocarcinoma; per os) was “the growth clearly slowed down with an obvious change in the consistency of the tumour”, the “tumour growth since Nov. 3rd, 1981, second bitch (BEL)” value (adenocarcinoma; up to surgical excision) was “virtually not enlarged since Nov. 3rd, 1981” and the “excised piece, second bitch (BEL)” value (adenocarcinoma; upon opening of excised tumour) was “considerable necrosis occupying virtually all the tumour”. For the same compound, the “clinical state, end of January 1981” value ([2]; 300 mg per day per os) was “very satisfactory”, the “superficial palpable mass, end of January 1981” value ([2]; 300 mg per day per os) was “had disappeared” and the “volume of the mass of the Douglas pouch, echotomograph Jan. 7th, 1981” value ([2]; 300 mg per day per os) was “clearly decreased”. For the same compound, the “mass of the Douglas pouch, echotomograph Dec. 9th, 1980” value ([2]; 300 mg per day per os from Nov. 1st, 1980, 3.5 cm on Oct. 27th) was “maintained the same diameter”, the “superficial mass / tissue of infiltration, echotomograph Dec. 9th, 1980” value ([2]; 300 mg per day per os, 4.4 by 3 cm before treatment) was “the tissue of infiltration had become a sclerous tissue” and the “death, 1st patient” value ([2]; after interruption of gallium chloride) was “death occurred on May 6th, 1981”.
